Assays:
[1] = test system: Na+-dependent Cl-/HCO3 exchanger (NCBE); assay: Inhibition of the Na+-dependent Cl-/HCO3- exchanger (NCBE) in human endothelial cells (BCECF fluorescence, FLIPR, pHi recovery); format: cell-based; conditions: inhibitor concentration of 10 μM; human endothelial cells (ECV-304); in presence of 50 μM HOE 642
Description: Inhibition of the Na^+-dependent Cl^−/HCO3 exchanger (NCBE) in human endothelial cells
Human endothelial cells (ECV-304) were detached from culture flasks with the aid of trypsin/EDTA buffer (0.05/0.02% in phosphate buffer) and, after centrifugation (100 g, 5 min), taken up in a buffered salt solution (mmol/l: 115 NaCl, 20 NH4Cl, 5 KCl, 1 CaCl2, 1 MgSO4, 20 N-(2-hydroxyethyl)piperazine-N=-2-ethanesulfonic acid (HEPES), 5 glucose and 1, g/l of bovine serum albumin; pH 7.4). This cell suspension was incubated at 37° C. for 20 min with 5 μM BCECF acetoxymethyl ester. The cells were then washed and resuspended in a sodium- and bicarbonate-free buffer solution (mmol/l: 5 HEPES, 133.8 choline chloride, 4.7 KCl, 1.25 MgCl2, 0.97 K2HPO4, 0.23 KH2PO4, 5 glucose; pH 7.4).
For the subsequent fluorescence measurement in the FLIPR (Fluorescent Imaging Plate Reader), 100 μl of this cell suspension in each case containing 20,000 cells were added by pipette per well of a 96-well microtiter plate and this microtiter plate was centrifuged (100 g, 5 min). In the FLIPR, 100 μl of buffer solution in each case were then removed from a further prepared microtiter plate and added by pipette to each of the 96 wells of the measuring plate. In this case, for a 100% control, i.e. a recovery of the intracellular pH (pHi) by means of the NCBE, a bicarbonate- and sodium-containing buffer solution (mmol/l: 5 HEPES, 93.8 NaCl, 40 NaHCO3, 4.7 KCl, 1.25 CaCl2, 1.25 MgCl2, 0.97 Na2HPO4, 0.23 NaH2PO4, 5 glucose; pH 7.4) which contained 50 μM HOE 642 was used. […]
After addition of the buffer solutions to the dye-loaded acidified cells situated in the measuring plate, the increase in the fluorescence intensity which corresponded to an increase in the pHi was determined in each well of the microtiter plate. The kinetics were in this case recorded at 35° C. over a period of 2 minutes.
The increase in the fluorescence intensities for different concentrations of the compounds according to the invention was related to the two controls and from this the inhibitory action of the substances was determined.

SMILES | Residual activity of the NCBE [1] [%] | melting point [°C]
N#CNS(=O)(=O)c1cccc(Cc2cccc(Cn3c(-c4ccccc4)nc(Cl)c3C=O)c2)c1 [Example 3, 2-Phenyl-4-formyl-5-chloro-3-[3-(3′-cyanoaminosulfonylbenzyl)benzyl]-3H-imidazole] | 24.3 | 75
CCCCc1nc(SC)c(C(=O)OCC)n1Cc1ccc(Cc2cccc(S(=O)(=O)NC#N)c2)cc1 [Example 1, Ethyl 2-butyl-5-methylsulfanyl-3-[4-(3′-cyanoaminosulfonylbenzyl)benzyl]-3H-imidazole-4-carboxylate] | 11.1 | 62
CCCCc1nc(SC)c(C(=O)OCC)n1Cc1cccc(Cc2cccc(S(=O)(=O)NC#N)c2)c1 [Example 2, Ethyl 2-butyl-5-methylsulfanyl-3-[3-(3′-cyanoaminosulfonylbenzyl)benzyl]-3H-imidazole-4-carboxylate] | 35.2 | 172 to 174

Reference: patent US6573288B1, “Substituted sulphonyl cyanamides, method for producing same and their use as medicament” (Aventis Pharma Deutschland GmbH, priority 1998, dated 2003)
